Where two headings read alike, the source gives them in different places.
Biological target: T1, HDM2 (Homo sapiens, UniProt Q00987)
T1 construct: Thioredoxin (N); made in house; host or cells: E. coli strain BL21(DE3)Rosetta
Assay: HDM2 FRET assay (inhibition of binding of FITC labeled p53-pocket peptide to HDM2)
Settings: for IC50: read-out: FRET IC50; for inhibition at 1 µM: read-out: inh. at 1000 nM (FRET)
How it was run: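 Signal is read as the 520/495 nm emission ratio and converted to percent inhibition; nonlinear sigmoidal regression yields IC50. The assay mixes HDM2 (0.5 nM), FITC-p53 peptide (3 nM) and Tb anti-His antibody (0.25 nM) at 0.1% DMSO.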

[1] = 0.5 nM HDM2 (residues 17 to 125), 3nM peptide, two hour incubation at room temperature

T1 sequence (Q00987 17-125): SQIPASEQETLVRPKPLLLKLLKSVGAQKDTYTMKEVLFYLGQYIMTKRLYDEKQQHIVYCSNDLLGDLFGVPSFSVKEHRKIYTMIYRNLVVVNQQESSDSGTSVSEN

Work on `C[C@@H](Nc1nc(-c2noc(=O)[nH]2)nc2nc(C(C)(O)c3cccnc3)n(C[C@H]3CC[C@H](C)CC3)c12)C1CCC1` (stereo partly drawn) [Example 22.51, 3-(6-{[(1R)-1-cyclobutylethyl]amino}-8-(1-hydroxy-1-pyridin-3-ylethyl)-7-[(trans-4-methylcyclohexyl)methyl] -7H-purin-2-yl)-1,2,4-oxadiazol-5(2H)-one] yielded an IC50 (Table 22) of 21.2 nM.
In the case of `CC(C)c1ccnc(-c2nc3nc(S(C)(=O)=O)nc(N[C@H](C)C4CCC4)c3n2C[C@H]2CC[C@H](C)CC2)c1` [Example 14.4, N-[(1R)-1-cyclobutylethyl]-7-[(trans-4-methylcyclohexyl)methyl]-8-[4-(1-methylethyl)pyridin-2-yl]-2-(methylsulfonyl)-7H-purin-6-amine], the IC50 [1] is reported as 72.4 nM.
Compound `CC(c1nc2nc(C(=O)O)nc(N[C@H](C)C3CCC3)c2n1Cc1ccc(C(F)(F)F)cc1)N(C)Cc1ccccc1` (stereo partly drawn) [Example 10.12, 8-(1-(benzyl(methyl)amino)ethyl)-6-(((R)-1-cyclobutylethyl)amino)-7-(4-(trifluoromethyl)benzyl)-7H-purine-2-carboxylic acid] has an IC50 (Table 10) of 139 nM.
Compound `CCN1CCC(C)CC1c1nc2nc(C(=O)O)nc(N[C@H](C)C3CCC3)c2n1C[C@H]1CC[C@H](C)CC1` (stereo partly drawn) [Example 10.34, 6-(((R)-1-Cyclobutylethyl)amino)-8-(1-ethyl-4-methylpiperidin-2-yl)-7-((trans-4-methylcyclohexyl)methyl)-7H-purine-2-carboxylic acid] has an IC50 (Table 10) of 5.98 nM.
`CC(C)c1ccnc(-c2nc3nc(C(=O)O)nc(N[C@H](c4ccccc4)C4CCC4)c3n2Cc2ccc(C(F)(F)F)cc2)c1` [Example 7.16, 6-{[(S)-cyclobutyl(phenyl)methyl]amino}-8-[4-(1-methylethyl)pyridin-2-yl]-7-[4-(trifluoromethyl)benzyl]-7H-purine-2-carboxylic acid] showed an IC50 (Table 7) of 40.6 nM.
`C[C@H]1OCCN(c2nc3nc(-c4n[nH]c(=O)o4)nc(-c4cccc(Cl)c4)c3n2C[C@H]2CC[C@H](C)CC2)[C@@H]1c1ccccc1` [Example 16.142, 5-{6-(3-chlorophenyl)-7-[(trans-4-methylcyclohexyl)methyl]-8-[(2R,3R)-2-methyl-3-phenylmorpholin-4-yl]-7H-purin-2-yl} - 1,3,4-oxadiazol-2(3H)-one] showed an IC50 [1] of 1.5 nM.
`CC([C@H]1CC[C@H](C)CC1)n1c(N2CCC[C@H]2CF)nc2nc(-c3noc(=O)[nH]3)nc(-c3cncc(Cl)c3)c21` (single isomer, unassigned) [Example 18.45] gave an IC50 (Table 18) of 2.42 nM.
`C[C@H]1CC[C@H](Cn2c(N3CCOC[C@H]3c3ccccc3)nc3nc(-c4noc(=O)[nH]4)nc(N4CCCCC4C4CCC4)c32)CC1` (stereo partly drawn) [Example 11.81, 3-{6-(2-cyclobutylpiperidin-1-yl)-7-[(trans-4-methylcyclohexyl)methyl]-8-[(3R)-3-phenylmorpholin-4-yl]-7H -purin-2-yl}-1,2,4-oxadiazol-5(4H)-one] was tested, and the IC50 (Table 11) was 483 nM.
`C[C@@H]1COCCN1c1nc2nc(-c3noc(=O)[nH]3)nc(N[C@H](C)C3CCC3)c2n1C[C@H]1CC[C@H](C)CC1` [Example 11.65, 3-(6-{[(1R)-1-cyclobutylethyl]amino}-7-[(trans-4-methylcyclohexyl)methyl]-8-[(3R)-3-methylmorpholin-4-yl]-7H-purin-2-yl)-1,2,4-oxadiazol-5(4H)-one] showed an IC50 (Table 11) of 1.45 nM.
Compound `CCC1CCCN1c1nc(C(=O)O)nc2nc(-c3cccc(C)c3)n(Cc3ccc(C(F)(F)F)cc3)c12` (stereo not drawn) [Example 6.78, 6-(2-ethylpyrrolidin-1-yl)-8-(3-methylphenyl)-7-[4-(trifluoromethyl)benzyl]-7H-purine-2-carboxylic acid] has an inhibition at 1 µM of 33%.
For `Cc1cccc(-c2nc3ncnc(NC(CC(=O)O)C4CC4)c3n2Cc2ccc(C(F)(F)F)cc2)c1` (stereo not drawn) [Example 6.18, 3-cyclopropyl-3-({8-(3-methylphenyl)-7-[4-(trifluoromethyl)benzyl]-7H-purin-6-yl}amino)propanoic acid], the IC50 (Table 6) was 5190 nM.
`C[C@@H](Nc1nc(-c2noc(=O)[nH]2)nc2nc(N3CCCC3c3ccccc3)n(C[C@H]3CC[C@H](C)CC3)c12)C1CCC1` (single isomer, unassigned) [Example 11.135] gave an IC50 (Table 11) of 2.08 nM.
`Cc1cccc(-c2nc3nc(C(=O)O)nc(N[C@@H](C4CC4)C(F)(F)F)c3n2Cc2ccc(C(F)(F)F)cc2)c1` [Example 6.53, 6-{[(1S)-1-cyclopropyl-2,2,2-trifluoroethyl]amino}-8-(3-methylphenyl)-7-[4-(trifluoromethyl)benzyl]-7H-purine-2-carboxylic acid] showed an IC50 (Table 6) of 419 nM.
For `C[C@H]1CC[C@H](Cn2c(C3(F)CCCCC3)nc3nc(-c4noc(=O)[nH]4)nc(-c4cncc(Cl)c4)c32)CC1` [Example 23.39, 3-{6-(5-chloropyridin-3-yl)-8-(1-fluorocyclohexyl)-7-[(trans-4-methylcyclohexyl)methyl] -7H-purin-2-yl}-1,2,4-oxadiazol-5(4H)-one], the IC50 (Table 23) was 18.1 nM.
Compound `C=CCN(c1nc(C(=O)O)nc2nc(N[C@@H](C)c3cccc(F)c3)n(Cc3ccc(C(F)(F)F)cc3)c12)[C@H](C)C1CCC1` [Example 10.28, 6-(Allyl((R)-1-cyclobutylethyl)amino)-8-(((S)-1-(3-fluorophenyl)ethyl)amino)-7-(4-(trifluoromethyl)benzyl)-7H-purine-2-carboxylic acid] has an IC50 (Table 10) of 22.2 nM.
`C[C@@H](Nc1nc(-c2noc(=O)[nH]2)nc2nc(N3CCOC[C@H]3c3ccccc3)n(C[C@H]3CC[C@H](C)CC3)c12)C1CCC1` [Example 11.11, 3-(6-{[(1R)-1-cyclobutylethyl]amino}-7-[(trans-4-methylcyclohexyl)methyl]-8-[(3R)-3-phenylmorpholin-4-yl]-7H-purin-2-yl)-1,2,4-oxadiazol-5(4H)-one] showed an IC50 (Table 11) of 0.626 nM.
Work on `C[C@@H](Nc1nc(-c2noc(=O)[nH]2)nc2nc(N3CCOC[C@H]3c3ccncc3)n(C[C@H]3CC[C@H](C)CC3)c12)C1CCC1` [Example 11.145, 3-(6-{[(1R)-1-cyclobutylethyl]amino}-7-[(trans-4-methylcyclohexyl)methyl]-8-[(3R)-3-pyridin-4-ylmorpholin-4-yl]-7H-purin-2-yl)-1,2,4-oxadiazol-5(4H)-one] yielded an IC50 (Table 11) of 1.31 nM.
Compound `C=CCN(c1nc2nc(C(=O)O)nc(N[C@H](C)C3CCC3)c2n1Cc1ccc(C(F)(F)F)cc1)C(C)c1ccccn1` (stereo partly drawn) [Example 10.30, 8-(Allyl(1-(pyridin-2-yl)ethyl)amino)-6-(((R)-1-cyclobutylethyl)amino)-7-(4-(trifluoromethyl)benzyl)-7H-purine-2-carboxylic acid] has an IC50 (Table 10) of 9.07 nM.
In the case of `C[C@@H](Nc1nc(-c2noc(=O)[nH]2)nc2nc(C(O)C3CCCC3)n(C[C@H]3CC[C@H](C)CC3)c12)C1CCC1` (stereo partly drawn) [Example 22.41, 3-(6-{[(1R)-1-cyclobutylethyl]amino}-8-[cyclopentyl(hydroxy)methyl]-7-[(trans-4-methylcyclohexyl)methyl] -7H-purin-2-yl)-1,2,4-oxadiazol-5(2H)-one], the IC50 (Table 22) is reported as 1.21 nM.
`Cc1cccc(-c2nc3nc(C(=O)O)nc(NC(C)CC(C)C)c3n2Cc2ccc(C(F)(F)F)cc2)c1` (stereo not drawn) [Example 6.62, 6-[(1,3-dimethylbutyl)amino]-8-(3-methylphenyl)-7-[4-(trifluoromethyl)benzyl]-7H-purine-2-carboxylic acid] was tested, and the inhibition at 1 µM was 34%.
`C[C@@H](Nc1nc(-c2noc(=O)[nH]2)nc2nc([S+]([O-])c3ccccc3)n(C[C@H]3CC[C@H](C)CC3)c12)C1CCC1` (stereo partly drawn) [Example 19.2, 3-[6-{[(1R)-1-cyclobutylethyl]amino}-7-[(trans-4-methylcyclohexyl)methyl]-8-(phenylsulfinyl)-7H-purin-2-yl]-1,2,4-oxadiazol-5(4H)-one] gave an IC50 (Table 19) of 1.77 nM.
With `CC1CCN(c2nc3nc(-c4noc(=O)[nH]4)nc(N[C@H](C)C4CCC4)c3n2C[C@H]2CC[C@H](C)CC2)C(c2ccccc2)C1` (single isomer, unassigned) [Example 11.68] the IC50 (Table 11) was 2.04 nM.
`C[C@@H](Nc1nc(C(=O)O)nc2nc(-c3ccc4sccc4c3)n(Cc3ccc(C(F)(F)F)cc3)c12)C1CC1` [Example 6.13, 8-(1-benzothiophen-5-yl)-6-{[(1R)-1-cyclopropylethyl]amino}-7-[4-(trifluoromethyl)benzyl]-7H-purine-2-carboxylic acid] showed an IC50 (Table 6) of 16.3 nM.
Work on `CC1CCN(C)C(c2nc3nc(C(=O)O)nc(N[C@H](C)C4CCC4)c3n2C[C@H]2CC[C@H](C)CC2)C1` (stereo partly drawn) [Example 10.33, 6-(((R)-1-Cyclobutylethyl)amino)-8-(1,4-dimethylpiperidin-2-yl)-7-((trans-4-methylcyclohexyl)methyl)-7H-purine-2-carboxylic acid] yielded an IC50 (Table 10) of 17.7 nM.
With `CSC1(C(=O)O)CCN(c2nc(N[C@H](C)C3CCC3)c3c(n2)nc(N2CCOC[C@H]2c2ccccc2)n3C[C@H]2CC[C@H](C)CC2)C1` (stereo partly drawn) [Example 13.10, 1-(6-{[(1R)-1-cyclobutylethyl]amino}-7-[(trans-4-methylcyclohexyl)methyl]-8-[(3R)-3-phenylmorpholin-4-yl]-7H-purin-2-yl)-3-(methylsulfanyl)pyrrol idine-3-carboxylic acid] the IC50 [1] was 248 nM.
`COC1(c2nc3nc(-c4noc(=O)[nH]4)nc(-c4cncc(Cl)c4)c3n2C[C@H]2CC[C@H](C)CC2)CCCCC1` [Example 23.75, 3-{6-(5-chloropyridin-3-yl)-8-(1-methoxycyclohexyl)-7-[(trans-4-methylcyclohexyl)methyl] -7H-purin-2-yl}-1,2,4-oxadiazol-5(4H)-one] was tested, and the IC50 (Table 23) was 30.7 nM.
`Cc1nnc([C@@H]2COCCN2c2nc3nc(-c4noc(=O)[nH]4)nc(-c4cccc(Cl)c4)c3n2C[C@H]2CC[C@H](C)CC2)o1` [Example 16.138, 3-{6-(3-chlorophenyl)-7-[(trans-4-methylcyclohexyl)methyl]-8-[(3S)-3-(5-methyl-1,3,4-oxadiazol-2-yl)morpholin-4-yl]-7H-purin-2-yl}-1,2,4-oxadiazol-5(4H)-one] gave an IC50 [1] of 79.1 nM.

From patent EP2951180B1, “2,6,7,8 SUBSTITUTED PURINES AS HDM2 INHIBITORS” (Merck Sharp & Dohme Corp., priority 2013, dated 2014)
